Measured values taken from patent US9126982B2, “Heterocyclic compounds, medicaments containing them, use and processes for the preparation thereof” (Boehringer Ingelheim International GmbH, priority 2013, dated 2015).
Read-outs that look alike come from different tables or passages of the source.

What was measured:
Mouse kidney M-1 cells = experiment: Ussing Chamber assay, short circuit current in M-1 cells; assay type: cell-based; details: inhibition of amiloride sensitive short circuit current (I_sc), compounds applied to the apical solution, 37° C.
Description: Ussing Chamber: Mouse kidney M-1 cells were cultivated in DMEM containing 5% FCS and 5 μM dexamethasone for 10 to 12 days on polyester transwell filters. Filters were inserted into a teflon-coated well-plate which fit into the ussing chamber system. Prior to measurement the medium of M-1 cells was replaced with Caco-2 transport buffer (Invitrogen, Germany). During measurements, the Ussing chamber temperature was kept at 37° C. Short circuit currents (I_sc) were measured in the voltage-clamp mode using an amplifier with the software package Lab View for data acquisition and analysis. The transepithelial electrical resistance (TEER) was determined by the application of voltage steps of ±5 mV every 5 sec. Compounds were administered at a final concentration of 3 μM or at increasing concentrations (e.g. 1-3-10 μM) to the apical solution. At the end of each experiment the amiloride sensitive I_SC was measured by adding 3 μM amiloride to the apical compartment. Results are expressed as inhibition in percent of the amiloride effect or as IC50.
With the example compounds given above, the following IC50 values given in Table 1 were determined in the Ussing Chamber assay: […]

[1] = Permeability and efflux in CALU-3 cells; assay type: in vitro ADME; details: human, Papp basal-to-apical, CALU-3 monolayers, pH 7.4, 37° C., 10 μM compound, read-out: P BA
Description: Permeability and Efflux in CALU-3 Cells:
Permeability measurements across polarized, confluent CALU-3 cell monolayers grown on permeable filter supports are used to provide information on the potential of a compound to pass the lung epithelium.
CALU-3 cells (1-2×10^5 cells/1 cm^2 area) are seeded on filter inserts (Costar transwell polycarbonate filters, 0.4 μm pore size) and cultured (DMEM) for 10-12 days until tight monolayers are formed. Compounds of interest are dissolved in appropriate solvent (DMSO, 10 mM stock solution). Stock solutions are diluted with HTP-4 buffer (128.13 mM NaCl, 5.36 mM KCl, 1 mM MgSO4, 1.8 mM CaCl2, 4.17 mM NaHCO3, 1.19 mM Na2HPO4×7H2O, 0.41 mM NaH2PO4×H2O, 15 mM HEPES, 20 mM glucose, 0.25% BSA, pH 7.4) to prepare the transport solutions (10 μM compound, final DMSO<=0.5%). The transport solution (TL) is applied to the apical or basolateral donor side for measuring A-B or B-A permeability (3 filter replicates), respectively. The receiver side contains the same buffer as the donor side. After 30 min of accommodation, samples are collected at the start t0=0 min and at the end of the experiment tn=90 min from the donor and at 0, 30, 60, and 90 min also from the receiver chamber. Volume removed is replenished by HTP-4 buffer. The compound concentration in the samples is measured by HPLC-MS/MS or scintillation counting. The permeability coefficient (Papp) and efflux ratio are calculated according to: Papp [cm/s]=(concentration receiver [nM]*volume receiver [mL]/time interval [sec])*(1/filter area)*(1/donor concentration [nM]) Efflux ratio or Uptake ratio=Papp,BA/Papp,AB

COC(=O)CN(C)[C@H]1CC[C@H](N/C(N)=N/C(=O)c2nc(Cl)c(N)nc2N)CC1 [Example 1.1]
IC50 (Mouse kidney M-1 cells): 0.007 µM

N/C(=N\C(=O)c1nc(Cl)c(N)nc1N)N[C@H]1CC[C@H](NC(=O)CN(CC(=O)O)CC(=O)O)CC1 [Example 2.1]
IC50 (Mouse kidney M-1 cells): 0.304 µM

C[N+]1(C)CCN(CC(=O)N[C@H]2CC[C@H](N/C(N)=N/C(=O)c3nc(Cl)c(N)nc3N)CC2)CC1.[I-] [Example 3.1]
IC50 (Mouse kidney M-1 cells): 0.025 µM | Papp B→A at 90 min, 10 μM ([1]; exponent E−07): 2.29 nm/s

CN(C)CCCN[C@H]1CC[C@H](N/C(N)=N/C(=O)c2nc(Cl)c(N)nc2N)CC1 [Example 4.1]
IC50 (Mouse kidney M-1 cells): 0.031 µM | Papp B→A at 90 min, 10 μM ([1]; exponent E−06 printed in the row below (r3)): < 27.2 nm/s

CC(C)(C)OC(=O)c1ccc(C(=O)N[C@H]2CC[C@H](N/C(N)=N/C(=O)c3nc(Cl)c(N)nc3N)CC2)cc1 [Example 5.1]
IC50 (Mouse kidney M-1 cells): 0.01 µM

C[C@@H](N)C(=O)N[C@H]1CC[C@H](N/C(N)=N/C(=O)c2nc(Cl)c(N)nc2N)CC1.O=C(O)C(F)(F)F [Example 6.1]
IC50 (Mouse kidney M-1 cells): 0.034 µM | Papp B→A at 90 min, 10 μM ([1]; exponent E−07): 2.25 nm/s

N/C(=N\C(=O)c1nc(Cl)c(N)nc1N)N[C@H]1CC[C@H](N)CC1 [Example 6.2]
IC50 (Mouse kidney M-1 cells): 0.006 µM | Papp B→A at 90 min, 10 μM ([1]; exponent E−07): < 2.72 nm/s

N=C(N)N[C@H]1CC[C@H](N/C(N)=N/C(=O)c2nc(Cl)c(N)nc2N)CC1 [Example 7]
IC50 (Mouse kidney M-1 cells): 0.01 µM

CN1CCN(S(=O)(=O)N[C@H]2CC[C@H](N/C(N)=N/C(=O)c3nc(Cl)c(N)nc3N)CC2)CC1.O=C(O)C(F)(F)F [Example 8]
IC50 (Mouse kidney M-1 cells): 0.025 µM | Papp B→A at 90 min, 10 μM ([1]; exponent E−07): 3.54 nm/s
